Measurements from US9771337B2, “Neprilysin inhibitors” (THERAVANCE BIOPHARMA R&D IP, LLC, priority 2011, dated 2017).

Biological target: T1, human NEP (Homo sapiens, UniProt P08473)
T1 construct: purchased R&D Systems, Minneapolis, Minn; 1182-ZN
Assay: In vitro enzyme inhibition assay, inhibitor potency at human NEP
Assay type: biochemical
Details: pKi values at human NEP; recombinant human NEP, fluorogenic peptide substrate 10 μM, 37° C.
Procedure: The inhibitory activities of compounds at human and rat neprilysin (EC 3.4.24.11; NEP) and human angiotensin converting enzyme (ACE) were determined using in vitro assays as described below.
Recombinant human NEP and recombinant human ACE were obtained commercially (R&D Systems, Minneapolis, Minn., catalog numbers 1182-ZN and 929-ZN, respectively). The fluorogenic peptide substrate Mca-D-Arg-Arg-Leu-Dap-(Dnp)-OH (Medeiros et al. (1997) Braz. J. Med. Biol. Res. 30:1157-62; Anaspec, San Jose, Calif.) and Abz-Phe-Arg-Lys(Dnp)-Pro-OH (Araujo et al. (2000) Biochemistry 39:8519-8525; Bachem, Torrance, Calif.) were used in the NEP and ACE assays respectively.
The assays were performed in 384-well white opaque plates at 37° C. using the fluorogenic peptide substrates at a concentration of 10 μM in Assay Buffer (NEP: 50 mM HEPES, pH 7.5, 100 mM NaCl, 0.01% polyethylene glycol sorbitan monolaurate (Tween-20), 10 μM ZnSO4; ACE: 50 mM HEPES, pH 7.5, 100 mM NaCl, 0.01% Tween-20, 1 μM ZnSO4).
Test compounds were assayed over the range of concentrations from […] to 20 μM. Test compounds were added to the enzymes and incubated for 30 minute at 37° C. prior to initiating the reaction by the addition of substrate. Reactions were terminated after 20 minutes of incubation at 37° C. by the addition of glacial acetic acid to a final concentration of 3.6% (v/v).
Plates were read on a fluorometer with excitation and emission wavelengths set to 320 nm and 405 nm, respectively. Inhibition constants were obtained by nonlinear regression of the data using the equation (GraphPad Software, Inc., San Diego, Calif.): v=v0/[1+(I/K′)] where v is the reaction rate, v0 is the uninhibited reaction rate, I is the inhibitor concentration and K′ is the apparent inhibition constant.
Compounds of the invention were tested in this assay and found to have pKi values at human NEP as follows.

T1 sequence (P08473 whole entry): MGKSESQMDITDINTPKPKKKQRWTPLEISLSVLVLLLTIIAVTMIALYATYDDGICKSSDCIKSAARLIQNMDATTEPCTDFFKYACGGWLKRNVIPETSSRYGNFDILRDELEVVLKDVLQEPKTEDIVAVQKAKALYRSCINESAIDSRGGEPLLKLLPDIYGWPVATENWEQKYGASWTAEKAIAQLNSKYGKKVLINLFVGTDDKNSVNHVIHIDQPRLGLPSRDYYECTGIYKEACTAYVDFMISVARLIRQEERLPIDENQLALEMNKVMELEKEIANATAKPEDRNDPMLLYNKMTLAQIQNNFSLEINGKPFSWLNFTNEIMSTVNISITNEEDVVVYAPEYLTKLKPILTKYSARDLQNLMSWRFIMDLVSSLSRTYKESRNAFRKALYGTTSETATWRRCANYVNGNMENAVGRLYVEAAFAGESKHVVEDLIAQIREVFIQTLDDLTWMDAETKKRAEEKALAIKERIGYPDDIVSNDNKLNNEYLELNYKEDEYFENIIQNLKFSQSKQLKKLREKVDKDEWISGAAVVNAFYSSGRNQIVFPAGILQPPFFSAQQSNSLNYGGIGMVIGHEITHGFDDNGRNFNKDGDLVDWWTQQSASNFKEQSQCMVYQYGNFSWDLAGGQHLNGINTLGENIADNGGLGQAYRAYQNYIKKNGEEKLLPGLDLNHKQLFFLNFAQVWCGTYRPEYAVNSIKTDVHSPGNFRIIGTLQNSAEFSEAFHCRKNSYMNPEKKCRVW

Ki [nM]	Structure (SMILES)
≤ 1	Cc1cc(-c2ccccc2C(=O)O)cc(C(=O)N[C@H](Cc2ccccc2Cl)[C@@H](O)C(=O)O)n1 [Example 2-1, 2-{2-[(1R,2R)-2-Carboxy-1-(2-chloro-benzyl)-2-hydroxy-ethylcarbamoyl]-6-methyl-pyridin-4-yl}-benzoic acid]
≤ 1	O=C(N[C@H](Cc1ccccc1Cl)[C@@H](O)C(=O)O)c1ccnc(-c2ccccc2C(=O)O)c1 [Example 2-2, 2-{4-[(1R,2R)-2-Carboxy-1-(2-chloro-benzyl)-2-hydroxy-ethylcarbamoyl]-pyridin-2-yl}-benzoic acid]
1.26 to 10	Cc1cc(C(=O)N[C@H](Cc2ccccc2Cl)[C@@H](O)C(=O)O)cc(-c2ccccc2C(=O)O)n1 [Example 2-4, 2-{4-[(1R,2R)-2-Carboxy-1-(2-chloro-benzyl)-2-hydroxy-ethylcarbamoyl]-6-methyl-pyridin-2-yl}-benzoic acid]
1.26 to 10	O=C(N[C@H](Cc1ccccc1Cl)[C@@H](O)C(=O)O)c1cncc(-c2ccccc2C(=O)O)c1 [Example 2-5, 2-{5-[(1R,2R)-2-Carboxy-1-(2-chloro-benzyl)-2-hydroxy-ethylcarbamoyl]-pyridin-3-yl}-benzoic acid]
≤ 1	O=C(N[C@H](Cc1ccccc1Cl)[C@@H](O)C(=O)O)c1cnc(O)c(-c2ccccc2C(=O)O)c1 [Example 2-7, 2-{5-[(1R,2R)-2-Carboxy-1-(2-chloro-benzyl)-2-hydroxy-ethylcarbamoyl]-2-hydroxy-pyridin-3-yl}-benzoic acid]
1.26 to 10	O=C(N[C@H](Cc1ccccc1Cl)[C@@H](O)C(=O)O)c1ccc(-c2ccccc2C(=O)O)nc1 [Example 2-8, 2-{5-[(1R,2R)-2-Carboxy-1-(2-chloro-benzyl)-2-hydroxy-ethylcarbamoyl]-pyridin-2-yl}-benzoic acid]
1.26 to 10	O=C(N[C@H](Cc1ccccc1Cl)[C@@H](O)C(=O)O)c1cnc(-c2ccccc2C(=O)O)c(Cl)c1 [Example 2-9, 2-{5-[(1R,2R)-2-Carboxy-1-(2-chloro-benzyl)-2-hydroxy-ethylcarbamoyl]-3-chloro-pyridin-2-yl}-benzoic acid]
1.26 to 10	O=C(N[C@H](Cc1ccccc1Cl)[C@@H](O)C(=O)O)c1cnc(-c2ccccc2C(=O)O)c(F)c1 [Example 2-10, 2-{5-[(1R,2R)-2-Carboxy-1-(2-chloro-benzyl)-2-hydroxy-ethylcarbamoyl]-3-fluoro-pyridin-2-yl}-benzoic acid]
1.26 to 10	O=C(N[C@H](Cc1ccccc1Cl)[C@@H](O)C(=O)O)c1cc(O)no1 [Example 2-11, (2R,3R)-4-(2-Chloro-phenyl)-2-hydroxy-3-[(3-hydroxy-isoxazole-5-carbonyl)-amino]-butyric acid]
1.26 to 10	O=C(N[C@H](Cc1ccccc1Cl)[C@@H](O)C(=O)O)c1cc(-c2ccccc2Cl)no1 [Example 2-12, (2R,3R)-4-(2-Chloro-phenyl)-3-{[3-(2-chloro-phenyl)-isoxazole-5-carbonyl]-amino}-2-hydroxy-butyric acid]
1.26 to 10	O=C(N[C@H](Cc1ccccc1Cl)[C@@H](O)C(=O)O)c1cc(-c2cccc(Cl)c2)no1 [Example 2-13, (2R,3R)-4-(2-Chloro-phenyl)-3-{[3-(3-chloro-phenyl)-isoxazole-5-carbonyl]-amino}-2-hydroxy-butyric acid]
1.26 to 10	O=C(N[C@H](Cc1ccccc1Cl)[C@@H](O)C(=O)O)c1cc(-c2ccc(Cl)cc2)no1 [Example 2-14, (2R,3R)-4-(2-Chloro-phenyl)-3-{[3-(4-chloro-phenyl)-isoxazole-5-carbonyl]-amino}-2-hydroxy-butyric acid]
1.26 to 10	O=C(N[C@H](Cc1ccccc1Cl)[C@@H](O)C(=O)O)c1cc(-c2ccccc2Cl)on1 [Example 2-15, (2R,3R)-4-(2-Chloro-phenyl)-3-{[5-(2-chloro-phenyl)-isoxazole-3-carbonyl]-amino}-2-hydroxy-butyric acid]
1.26 to 10	O=C(N[C@H](Cc1ccccc1Cl)[C@@H](O)C(=O)O)c1cc(=O)n(Cc2ccc(Cl)cc2F)o1 [Example 2-16, (2R,3R)-3-{[2-(4-Chloro-2-fluoro-benzyl)-3-oxo-2,3-dihydro-isoxazole-5-carbonyl]-amino}-4-(2-chloro-phenyl)-2-hydroxy-butyric acid]
1.26 to 10	COc1ccc(Cn2oc(C(=O)N[C@H](Cc3ccccc3Cl)[C@@H](O)C(=O)O)cc2=O)c(F)c1F [Example 2-17, (2R,3R)-4-(2-Chloro-phenyl)-3-{[2-(2,3-difluoro-4-methoxy-benzyl)-3-oxo-2,3-dihydro-isoxazole-5-carbonyl]-amino}-2-hydroxy-butyric acid]
12.6 to 100	O=C(N[C@H](Cc1ccccc1Cl)[C@@H](O)C(=O)O)c1cnc(-c2ccccc2)o1 [Example 2-18, (2R,3R)-4-(2-Chloro-phenyl)-2-hydroxy-3-[(2-phenyl-oxazole-5-carbonyl)-amino]-butyric acid]
12.6 to 100	O=C(N[C@H](Cc1ccccc1Cl)[C@H](O)C(=O)O)c1cnn[nH]1 [Example 2-19, (2S,3R)-4-(2-Chloro-phenyl)-2-hydroxy-3-[(3H-[1,2,3]triazole-4-carbonyl)-amino]-butyric acid]
12.6 to 100	O=C(N[C@H](Cc1ccccc1Cl)[C@@H](O)C(=O)O)c1cn(Cc2ccccc2)nn1 [Example 2-20, (2R,3R)-3-[(1-Benzyl-1H-[1,2,3]triazole-4-carbonyl)-amino]-4-(2-chloro-phenyl)-2-hydroxy-butyric acid]
12.6 to 100	O=C(N[C@H](Cc1ccccc1Cl)[C@@H](O)C(=O)O)c1cn(O)nn1 [Example 2-21, (2R,3R)-4-(2-Chloro-phenyl)-2-hydroxy-3-[(1-hydroxy-1H-[1,2,3]triazole-4-carbonyl)-amino]-butyric acid]
12.6 to 100	Cc1nc(C(=O)N[C@H](Cc2ccccc2Cl)[C@@H](O)C(=O)O)nn1-c1ccc(Cl)cc1 [Example 2-22, (2R,3R)-4-(2-Chloro-phenyl)-3-{[1-(4-chloro-phenyl)-5-methyl-1H-[1,2,4]triazole-3-carbonyl]-amino}-2-hydroxy-butyric acid]
12.6 to 100	O=C(N[C@H](Cc1ccccc1Cl)[C@@H](O)C(=O)O)c1nn(Cc2ccc(Cl)cc2F)c(=O)[nH]1 [Example 2-23, (2R,3R)-3-{[1-(4-Chloro-2-fluoro-benzyl)-5-oxo-4,5-dihydro-1H-[1,2,4]triazole-3-carbonyl]-amino}-4-(2-chloro-phenyl)-2-hydroxy-butyric acid]
1.26 to 10	O=C(N[C@H](Cc1ccccc1Cl)[C@@H](O)C(=O)O)c1cc2n(n1)COc1ccccc1-2 [Example 2-24, (2R,3R)-4-(2-Chloro-phenyl)-2-hydroxy-3-[(5-oxa-3,3a-diazacyclopenta[a]naphthalene-2-carbonyl)-amino]-butyric acid]
1.26 to 10	O=C(N[C@H](Cc1ccccc1Cl)[C@@H](O)C(=O)O)c1cc2n(n1)CCOc1ccccc1-2 [Example 2-26, (2R,3R)-4-(2-Chloro-phenyl)-3-[(4,5-dihydro-6-oxa-3,3a-diaza-benzo[e]azulene-2-carbonyl)-amino]-2-hydroxy-butyric acid]
1.26 to 10	O=C(N[C@H](Cc1ccccc1Cl)[C@H](O)C(=O)O)c1cc(F)c2nn[nH]c2c1 [Example 2-27, (2S,3R)-4-(2-Chloro-phenyl)-3-[(7-fluoro-3H-benzotriazole-5-carbonyl)-amino]-2-hydroxy-butyric acid]
